According to ChEMBL document CHEMBL1201862, “PubChem BioAssay data set” (2004):
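Compound exposure: 48 hours, 5 concentrations, 96-well plates. GI50 is the concentration that inhibits growth by half.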 The source made the active and inactive calls. Cut-off read from the data, not from the text of the source: active = GI50 up to about 1.1 µM and inactive = higher.

Tests used:
Assay in all cases: DTP human tumour cell line panel, 48 h
[1] = test system: NCI-H226
[2] = test system: SW-620
[3] = test system: ACHN
[4] = test system: SR
[5] = test system: HOP-92
[6] = test system: TK-10
[7] = test system: EKVX
[8] = test system: CCRF-CEM
[9] = test system: OVCAR-8
[10] = test system: NCI-H522
[11] = test system: NCI-H460
[12] = test system: SF-295
[13] = test system: RXF 393
[14] = test system: KM12
[15] = test system: HOP-62
[16] = test system: OVCAR-3
[17] = test system: DU-145
[18] = test system: PC-3
[19] = test system: HCC 2998
[20] = test system: RPMI-8226
[21] = test system: M14
[22] = test system: MDA-MB-435
[23] = test system: Malme-3M
[24] = test system: NCI-H23
[25] = test system: U-251
[26] = test system: UO-31
[27] = test system: MDA-MB-231
[28] = test system: CAKI-1
[29] = test system: SNB-19
[30] = test system: SN12C
[31] = test system: 786-0
[32] = test system: MDA-N
[33] = test system: MOLT-4
[34] = test system: NCI/ADR-RES
[35] = test system: T47D
[36] = test system: COLO 205
[37] = test system: K562
[38] = test system: MCF7
[39] = test system: SF-268
[40] = test system: OVCAR-4
[41] = test system: HL-60
[42] = test system: HCT-15
[43] = test system: BT-549
[44] = test system: SK-MEL-2
[45] = test system: OVCAR-5
[46] = test system: HCT-116
[47] = test system: HT-29
[48] = test system: UACC-257

In the case of `CC(C)(NO)/C(=N\O)c1ccccc1`, the GI50 [1] is reported as > 10 µM (inactive), the GI50 [2] is reported as > 10 µM (inactive) and the GI50 [3] is reported as > 10 µM (inactive). The GI50 [4] was > 10 µM (inactive), the GI50 [5] was > 10 µM (inactive) and the GI50 [6] was > 10 µM (inactive). The GI50 [7] was > 10 µM (inactive), the GI50 [8] was > 10 µM (inactive) and the GI50 [9] was > 10 µM (inactive). The GI50 [10] was > 10 µM (inactive), the GI50 [11] was > 10 µM (inactive) and the GI50 [12] was > 10 µM (inactive). For the same molecule, the GI50 [13] was > 10 µM (inactive), the GI50 [14] was > 10 µM (inactive) and the GI50 [15] was > 10 µM (inactive). The GI50 [16] was > 10 µM (inactive), the GI50 [17] was > 10 µM (inactive) and the GI50 [18] was > 10 µM (inactive). The GI50 [19] was > 10 µM (inactive), the GI50 [20] was > 10 µM (inactive) and the GI50 [21] was > 10 µM (inactive). The GI50 [22] was > 10 µM (inactive), the GI50 [23] was > 10 µM (inactive) and the GI50 [24] was > 10 µM (inactive). For the same molecule, the GI50 [25] was > 10 µM (inactive), the GI50 [26] was > 10 µM (inactive) and the GI50 [27] was > 10 µM (inactive). For the same molecule, the GI50 [28] was > 10 µM (inactive), the GI50 [29] was > 10 µM (inactive) and the GI50 [30] was > 10 µM (inactive). For the same molecule, the GI50 [31] was > 10 µM (inactive), the GI50 [32] was > 10 µM (inactive) and the GI50 [33] was > 10 µM (inactive). The GI50 [34] was > 10 µM (inactive), the GI50 [35] was > 10 µM (inactive) and the GI50 [36] was > 10 µM (inactive). The GI50 [37] was > 10 µM (inactive), the GI50 [38] was > 10 µM (inactive) and the GI50 [39] was > 10 µM (inactive). For the same molecule, the GI50 [40] was > 10 µM (inactive), the GI50 [41] was > 10 µM (inactive) and the GI50 [42] was over 10 µM. For the same molecule, the GI50 [43] was > 10 µM (inactive), the GI50 [44] was > 10 µM (inactive) and the GI50 [45] was > 10 µM (inactive). The GI50 [46] was > 10 µM (inactive), the GI50 [47] was > 10 µM (inactive) and the GI50 [48] was > 10 µM (inactive).
